ChEMBL document CHEMBL4418913, “Modulation of K2P channels” (2018)
Each block holds one compound with its values, some of them ahead of it. Calls of active or inactive are those of the source. No cut-off for these calls is given here.

Columns and labels:
[1] = biological target: T1, Potassium channel subfamily K member 2 (Homo sapiens) (UniProt O95069); assay: Activation of K2P2.1 (unknown origin) expressed in Xenopus oocytes assessed as effect on channel currents at 400 uM by two-electrode voltage clamp assay; type: cell-based
T1 sequence (whole entry): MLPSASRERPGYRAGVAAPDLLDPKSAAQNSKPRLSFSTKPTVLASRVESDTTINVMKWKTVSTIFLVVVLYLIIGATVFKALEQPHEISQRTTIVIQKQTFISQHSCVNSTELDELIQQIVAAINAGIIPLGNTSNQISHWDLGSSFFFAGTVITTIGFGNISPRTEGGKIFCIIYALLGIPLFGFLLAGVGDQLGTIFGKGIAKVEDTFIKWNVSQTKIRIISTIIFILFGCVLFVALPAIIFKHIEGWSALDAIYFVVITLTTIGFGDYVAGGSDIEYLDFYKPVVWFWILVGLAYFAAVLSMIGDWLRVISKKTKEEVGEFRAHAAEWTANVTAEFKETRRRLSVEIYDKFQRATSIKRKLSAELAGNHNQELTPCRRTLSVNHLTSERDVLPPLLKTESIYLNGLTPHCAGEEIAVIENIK

[2] = system: Potassium channel subfamily K member 2 (Homo sapiens), O95069 [UNDEFINED MUTATION]; assay: Activation of K2P2.1 W275S mutant (unknown origin) expressed in Xenopus oocytes assessed as effect on channel currents at 50 uM by two-electrode voltage clamp assay; type: cell-based
[3] = system: Potassium channel subfamily K member 2 (Homo sapiens), O95069 [UNDEFINED MUTATION]; assay: Activation of K2P2.1 G137I mutant (unknown origin) expressed in Xenopus oocytes assessed as effect on channel currents at 50 uM by two-electrode voltage clamp assay; type: cell-based
Homo sapiens = species: Homo sapiens; assay: Activation of K2P2.1 triple Glycine mutant (unknown origin) expressed in Xenopus oocytes assessed as effect on channel currents at 50 uM by two-electrode voltage clamp assay; type: cell-based
[4] = biological target: T1, Potassium channel subfamily K member 2 (Homo sapiens); assay: Activation of K2P2.1 (unknown origin) expressed in HEK293T cells inside out excised patches assessed as effect on channel currents at 20 uM at -40 mV holding potential by patch clamp assay relative to untreated control; type: cell-based
[5] = biological target: T1, Potassium channel subfamily K member 2 (Homo sapiens); assay: Reversible activation of K2P2.1 (unknown origin) expressed in Xenopus oocytes assessed as effect on channel currents at 50 uM at -80 mV holding potential by two-electrode voltage clamp assay; type: cell-based
[6] = biological target: T1, Potassium channel subfamily K member 2 (Homo sapiens); assay: Activation of K2P2.1 (unknown origin) expressed in Xenopus oocytes assessed as effect on channel currents at 50 uM in presence of 90 mM [K+]o-induced extracellular C-type gate stabilization by two-electrode voltage clamp assay; type: cell-based
[7] = biological target: T1, Potassium channel subfamily K member 2 (Homo sapiens); assay: Reversible activation of K2P2.1 (unknown origin) expressed in HEK293T cells assessed as effect on channel currents at 5 to 20 uM by […] assay; type: cell-based
[8] = biological target: T1, Potassium channel subfamily K member 2 (Homo sapiens); assay: Reversible activation of K2P2.1 (unknown origin) expressed in HEK293T cells assessed as effect on channel currents at 10 uM at -80 mV holding potential by whole cell patch clamp assay relative to untreated control; type: cell-based
[9] = biological target: T1, Potassium channel subfamily K member 2 (Homo sapiens); assay: Activation of K2P2.1 (unknown origin) expressed in HEK293T cells outside out excised patches assessed as effect on channel currents at 20 uM at -40 mV holding potential by […] patch clamp assay relative to untreated control; type: cell-based
[10] = biological target: T1, Potassium channel subfamily K member 2 (Homo sapiens); assay: Inhibition of K2P2.1 (unknown origin) expressed in Xenopus oocytes assessed as effect on channel currents at 100 to 500 uM at 40 mV holding potential by two-electrode voltage clamp assay; type: cell-based
[11] = biological target: T1, Potassium channel subfamily K member 2 (Homo sapiens); assay: Reversible modulatory activity at K2P2.1 (unknown origin) expressed in Xenopus oocytes assessed as effect on channel currents at 100 uM at -80 mV holding potential by two-electrode voltage clamp assay; type: cell-based
[12] = biological target: T2, Potassium channel subfamily K member 4 (Homo sapiens) (UniProt Q9NYG8); assay: Binding affinity to K2P4.1 (unknown origin) assessed as induction of protein cross linking and labelling at 1 to 200 uM following 254 nm UV light irradiation for 30 secs by SDS-PAGE analysis
T2 sequence (whole entry): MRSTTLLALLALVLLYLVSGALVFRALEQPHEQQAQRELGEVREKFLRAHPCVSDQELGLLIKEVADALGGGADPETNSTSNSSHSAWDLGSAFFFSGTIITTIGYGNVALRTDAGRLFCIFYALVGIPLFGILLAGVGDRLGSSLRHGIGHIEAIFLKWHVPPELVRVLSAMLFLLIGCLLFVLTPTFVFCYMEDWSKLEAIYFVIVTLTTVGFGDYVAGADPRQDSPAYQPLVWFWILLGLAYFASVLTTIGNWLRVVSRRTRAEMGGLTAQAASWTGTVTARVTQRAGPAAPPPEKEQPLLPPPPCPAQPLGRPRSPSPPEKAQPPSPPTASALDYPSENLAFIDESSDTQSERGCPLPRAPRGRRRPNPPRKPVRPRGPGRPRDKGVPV

[13] = biological target: Potassium voltage-gated channel subfamily KQT member 2 (Homo sapiens) (UniProt O43526); assay: Activation of Kv7.2 (unknown origin) expressed in Xenopus oocytes assessed as effect on channel currents by two-electrode voltage clamp assay; type: cell-based
[14] = biological target: T1, Potassium channel subfamily K member 2 (Homo sapiens); assay: Activation of K2P2.1 (unknown origin) expressed in Xenopus oocytes assessed as effect on channel currents at -80 mV holding potential by two-electrode voltage clamp assay relative to untreated control; type: cell-based

Chain of Potassium voltage-gated channel subfamily KQT member 2 (Homo sapiens) (O43526 whole entry): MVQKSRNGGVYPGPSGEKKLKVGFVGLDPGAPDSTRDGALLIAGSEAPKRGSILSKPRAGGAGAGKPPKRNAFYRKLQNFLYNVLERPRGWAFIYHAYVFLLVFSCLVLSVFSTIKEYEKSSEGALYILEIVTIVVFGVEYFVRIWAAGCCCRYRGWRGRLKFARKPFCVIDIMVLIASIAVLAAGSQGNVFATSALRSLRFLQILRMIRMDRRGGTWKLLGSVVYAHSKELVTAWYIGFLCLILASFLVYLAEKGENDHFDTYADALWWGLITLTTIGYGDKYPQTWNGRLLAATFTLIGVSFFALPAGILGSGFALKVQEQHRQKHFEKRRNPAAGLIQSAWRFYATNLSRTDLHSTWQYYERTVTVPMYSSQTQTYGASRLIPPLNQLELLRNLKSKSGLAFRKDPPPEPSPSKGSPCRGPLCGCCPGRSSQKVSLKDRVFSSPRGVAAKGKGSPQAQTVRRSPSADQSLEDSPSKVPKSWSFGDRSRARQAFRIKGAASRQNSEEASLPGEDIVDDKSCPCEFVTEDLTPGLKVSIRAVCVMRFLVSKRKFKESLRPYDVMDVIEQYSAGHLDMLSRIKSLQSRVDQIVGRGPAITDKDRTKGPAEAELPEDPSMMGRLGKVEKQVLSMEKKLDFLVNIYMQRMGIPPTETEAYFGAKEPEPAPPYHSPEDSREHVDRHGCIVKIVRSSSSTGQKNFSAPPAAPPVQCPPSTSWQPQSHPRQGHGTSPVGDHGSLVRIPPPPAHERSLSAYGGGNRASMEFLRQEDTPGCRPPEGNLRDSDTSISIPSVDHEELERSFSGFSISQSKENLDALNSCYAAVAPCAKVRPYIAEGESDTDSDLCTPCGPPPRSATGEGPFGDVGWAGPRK

SMILES: O=C(O)COc1ccc(C23CC4CC(CC(C4)C2)C3)cc1
Activity [1]: Active

SMILES: O=C1S/C(=C/c2ccc(F)cc2)C(=O)N1CN1CCCCC1
Activity [1]: Active

SMILES: C#Cc1ccc(S(=O)(=O)NC(=O)CCN2c3ccc(N=[N+]=[N-])cc3C3(CCCCC3)c3cc(N=[N+]=[N-])ccc32)cc1
Activity [12]: Active

More lines, main results first:

Activity [2]: inactive | Activity [3]: inactive | Activity [4]: Active | Activity [5]: Active | Activity [6]: inactive | Activity [7]: Active | Activity [8]: Active | Activity [9]: Active
SMILES: CC1(C)c2cc(Cl)ccc2N(CCc2nnn[nH]2)c2ccc(Cl)cc21
Activity (Homo sapiens): inactive

inhibition [10]: Active
SMILES: Cc1sc(-n2cccc2)c(C(=O)NCc2ccc(Cl)cc2)c1C

Activity [11]: Active
SMILES: Cc1cccc(-n2ncc3c(NCCc4ccccc4)ncnc32)c1

Activity [13]: inactive | Activity [1]: Active | Emax [14]: 11 | Activity [11]: Active
SMILES: O=C(O)CCn1c2ccc(Cl)cc2c2cc(Cl)ccc21
